Laboratory results as given in US20260158139A1, “CARD9 VARIANT POLYPEPTIDE AND ANTIBODIES DIRECTED THERETO” (The Broad Institute, Inc., priority 2023, published 2026).

Columns and labels:
PKCδ = target: T1, PKCδ (Mus musculus, UniProt P28867); test: CARD9 immunoprecipitation and western blot for pS104-CARD9 in BMDCs stimulated with HKCA; type: cell-based; conditions: 10 uM, added 1 h before stimulation; BMDCs from WT mice stimulated with HKCA (MOI 1:10)
T1 construct: endogenous in cells; host or cells: mouse bone-marrow-derived dendritic cells (BMDCs) from WT mice
T1 sequence (P28867 whole entry): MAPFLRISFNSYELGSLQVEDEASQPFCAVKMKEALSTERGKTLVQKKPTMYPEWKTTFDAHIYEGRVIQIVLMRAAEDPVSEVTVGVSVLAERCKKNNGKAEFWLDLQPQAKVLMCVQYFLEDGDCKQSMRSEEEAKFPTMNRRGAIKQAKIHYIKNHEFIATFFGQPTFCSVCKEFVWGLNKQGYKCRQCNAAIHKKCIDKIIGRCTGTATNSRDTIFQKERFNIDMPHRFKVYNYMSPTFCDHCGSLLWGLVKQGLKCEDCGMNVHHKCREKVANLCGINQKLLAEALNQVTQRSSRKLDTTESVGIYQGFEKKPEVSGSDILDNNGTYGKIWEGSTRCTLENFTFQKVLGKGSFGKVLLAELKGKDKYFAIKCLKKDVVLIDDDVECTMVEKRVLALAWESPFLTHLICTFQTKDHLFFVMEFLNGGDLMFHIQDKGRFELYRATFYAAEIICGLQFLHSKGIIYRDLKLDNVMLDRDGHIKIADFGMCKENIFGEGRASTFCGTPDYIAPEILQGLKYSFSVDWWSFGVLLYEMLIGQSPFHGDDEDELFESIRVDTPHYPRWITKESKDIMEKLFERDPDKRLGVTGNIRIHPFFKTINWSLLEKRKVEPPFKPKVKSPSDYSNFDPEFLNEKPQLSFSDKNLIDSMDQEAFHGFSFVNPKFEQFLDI
Protocol: FIGS. 3A-3H provide graphs and pictures showing that CARD9 R101 functions as a signaling switch activated by S104 phosphorylation. FIG. 3A, BMDCs expressing Cas9 were transduced with guides for the corresponding genes on day 2 and selected with puromycin. On day 9 cells were stimulated with 100 ug/ml WGP O/N and IL-6 levels in supernatant were measured with ELISA. FIG. 3B, BMDCs expressing Cas9 were transduced with guides for the corresponding genes on day 2 and selected with puromycin. On day 9 cells were stimulated with HKCA (MOI 1:10), HKTR (1:10) or LPS (10 ng/ml) for 30 min. p65 nuclear translocation was measured using fluorescence imaging. The bars in the graph are shown in groups of 6 (from left to right, EGFP, EGFP, PAK2, PAK2, PKCd, PKCd) for each different condition (i.e., untreated, HKCA, HKTR, LPS). FIG. 3C, CARD9 FL, CARD9 R101C or CARD9 S104N were overexpressed in HEK 293T cells. […] Samples were analyzed by WB with the indicated antibodies. […] Samples were analyzed by WB with the indicated antibodies. FIG. 3F, Normalized fluorescence polarization representing filament formation between different CARD9 2-152 variants and Bcl10, average of quadruplicates. […] FIG. 3H, Expression of CARD9 in the lysates from panel g determined by western blot (WB) with the indicated antibodies. […]

[1] = system: phosphorylated S104 (pS104) of CARD9, peptides pS104, pS104/R101C, S104; test: ELISA of hybridoma clones against CARD9 peptides (antibody specificity); type: binding; conditions: pS104 in the context of either R101 or C101
Text: FIGS. 9A-9J provide schematics, pictures, a table, graphs showing that CARD9 activation through S104 phosphorylation is impaired by the R101C variant implicated in fungal disease. FIG. 9A, schematic representation of CRISPR KI into CARD9 allele to obtain endogenous CARD9 R101C mutation. Figure discloses SEQ ID NOS 69-71, respectively, in order of appearance. FIG. 9B, representative sequencing result highlighting the presence of mutated base pair (arrow). Figure discloses SEQ ID NOS 72-74, respectively, in order of appearance. FIG. 9C, WB from BMDCs isolated from WT or CARD9 R101C mutant mice. FIG. 9D, WB from splenic CD11c positive cells isolated from WT or CARD9 R101C mutant mice. FIG. 9E, table summarizing hybridoma screening results for binding affinity of different phospho-S104 specific antibodies. ELISA results are shown as values of absorbance at 490 nm, representing antibody reactivity towards either pS104, or pS104/R101C, or S104 peptides. Antibody used in the study is row 6 (i.e., 4F9.H5). FIG. 9F, IL-6 concentration in supernatants from BMDCs from WT, CARD9−/− or CARD9R101C mutant treated with indicated concentrations of WGP, HKCA, HKTR or LPS (10 ng/ml) for 24h. (n=3 mice per condition). […]

Row | Molecule | CARD9 S104 phosphorylation (PKCδ) | recognition of S104 phosphorylation (antibody specificity by ELISA against different peptides) [1]
1 | CN1CCN(c2nc(C3=C(c4c[nH]c5ccccc45)C(=O)NC3=O)c3ccccc3n2)CC1 [Sotrastaurin] | inhibition of CARD9 S104 phosphorylation | –
2 | phospho-specific CARD9 S104 antibody: mouse monoclonal IgG1 antibody to phosphorylated S104 of CARD9; clone 4F9.H5 used in the study; VH/VL in Table 1 (antibody, V domains shown) VH: EVQLQQSGPELVKPGASMKMSCKASGYSFTGQTMHWVKQTHGKNLEWIGLINPYNGGTKYNQIFTGKATLTVDKSSSSAYMELLSLTSEDSAVYFCAIWDYVLDYWGQGTSVTVSSAKTTPPSVYPLAPGSAAQTNSMVTLGCLVK VL: DVVMTQTPLSLPVSLGDQASISCRSSQSLLHSNGKTYLHWYLQKPGQSPKLLIYKVSNRFSGVPDRFSGSGSGTDFTLKISRVEAEDLGVYFCSQSTHIPPTFGGGTKLEIKRADAAPTVSIFPPSSEQLTSGGASVVCF | – | recognizes S104 phosphorylation independently of R101
